# Assay results from patent publication US20210332139A1, “MODULATION OF LEUKOCYTE ACTIVITY IN TREATMENT OF NEUROINFLAMMATORY DEGENERATIVE DISEASE” (Leuvas Therapeutics, priority 2013, published 2021).
# Where “and” joins values, the source holds several entries; their conditions need not be identical. Identical values can stand only once.
# Assays:
# [1] = system: Bend.3 endothelial cell line; test: Adhesion molecule expression on Bend.3 endothelial cells (immunofluorescence); assay type: cell-based, mouse; parameters: key: −: VCAM-1 and selectins were not expressed (indicated by -, Table 2); constitutively expressed at low levels on endothelial cells (indicated by +/−, some vessels were positive for ICAM-1, Table 2); an increase of ICAM-1 expression (indicated by +, Table 2); conditions: Bend.3 cells, 10 μM Aβ1-42 oligomers, 18 h
# Experimental: We performed in vitro experiments to study the effect of soluble Aβ1-42 oligomers on the endothelial cell line Bend.3, derived from mouse cerebral cortex purchased by ATCC& Cell Biology Collection (CRL-2299TM).
# Briefly, Bend.3 were cultured at a concentration of 20×10^3/ml on a glass coverslip in 24-well plates containing DMEM supplemented with 10% Fetal Calf Serum (FCS). Cells were stimulated with 10 μM Aβ 1-42, for 18 h in DMEM with 1% FCS. […] positive control, cells were treated with 25 U/ml of TNFα for 18 h in DMEM with 1% FCS. Bend.3 were rinsed with PBS and fixed with 4% PFA for 10 minutes. Cells were washed with PBS incubated with blocking buffer for 1 h at RT° C. Primary antibodies were diluted in 1% Bovine Serum Albumin (BSA) PBS. Cells were incubated overnight at 4° C. with 50 μg/ml anti-VCAM (hybridoma MK2.7), 10 μg/ml anti-ICAM (hybridoma YN1.7), 0.5 μg/ml anti-CD31 (370700, Invitrogen), 5 μg/ml anti-E-selectin (hybridoma RME-1) and 1.5 μg/ml anti-P-selectin (CD62P, BD Pharmigen). The day after, cells were rinsed 2 times with PBS and then incubated with 7.5 μg/ml biotinylated secondary antibody (rabbit anti-rat, T0226, VectorLab) for 1 h at RT° C. Cells were rinsed 2 times with PBS and incubated with 25 μg/ml Avidin-TexasRed (A2006, Vector Lab) for 1 h at RT° C. in the dark. After rinsing in PBS, cells were incubated with 1 μg/ml Dapi (D9542, Sigma-Aldrich, St. Louis, Mo.), for 5 minutes in the dark. Finally, glass coverslip was transferred on glass slides and mounted with Dako medium (S3023, DAKO NORTH AMERICA, Carpinteria, Calif.). Glass slides were kept at 4° C. in the dark and acquired by LEICA fluorescence microscopy (DM6000B, LEICA, Germany).
# We analyzed the expression of VCAM-1, ICAM-1, E- and P-selectin on Bend.3 after Aβ1-42 oligomers stimulation. TNF-α stimulation, which is well known to up-regulate the adhesion molecules expression, was used as positive control. We evaluated a dose-response effect of Aβ1-42 soluble oligomers on Bend.3 cells, ranging from 1 to 10 μM after 6 or 18 hours of treatment. After 18 h of treatment with 10 μM Aβ we observed a significant up-regulation of […] compared to non-stimulated control cells (CTRL) (Table 2). […] ICAM-1 was constitutively expressed at low levels on endothelial cells (indicated by +/−, some vessels were positive for ICAM-1, Table 2), but 18 h treatment with Aβ1-42 led to an increase of ICAM-1 expression (indicated by +, Table 2).
# human neutrophils [2] = test: Rapid adhesion of human neutrophils to fibrinogen and ICAM-1; assay type: cell-based; conditions: mean+/−SD
# Source text: (§1) All data are expressed as the mean+/−SD of bound cells in 0.2 mm^2 from three independent experiments made in duplicate.
# mouse neutrophils [3] = test: Rapid adhesion of mouse neutrophils to fibrinogen and ICAM-1; assay type: cell-based; conditions: mean+/−SD
# Source text: as §1
# neutrophils = test: Rapid adhesion of neutrophils, soluble versus fibrillary Aβ1-42; assay type: cell-based; conditions: mean+/−SD
# Source text: Although two-times less efficient than the soluble form, fibrillary Aβ triggered a significant increase of rapid neutrophil adhesion on both ICAM-1 and fibrinogen (Table 8; data are expressed as the mean+/−SD of bound cells in 0.2 mm^2 from three independent experiments made in duplicate).
# human neutrophils [4] = test: Rapid human neutrophil adhesion to ICAM-1, inhibition by bocMLF and PTx; assay type: cell-based; conditions: oligomeric Aβ, 2 minutes
# Experimental: (§2) It is known that one of the receptors for Aβ is the receptor for fMLP, formylpeptide chemotactic receptor (FPR). To evaluate the contribution of this GPCR receptor on Aβ-dependent neutrophil adhesion, we inhibited its function using boc-MLF, a formyl-peptide chemotactic receptor antagonist. Human neutrophils were incubated for 2 minutes with buffer (control) or with oligomeric Aβ. 0.1 μM fMLP was used as a positive control. Values are expressed as the mean counts of bound cells in 0.2 mm^2 from three independent experiments in duplicate. Error bars represent SD. […] To exclude the possibility that rapid adhesion triggering was a consequence of a generic plasma membrane alteration due to the lipophilic nature of Aβ, we evaluated rapid adhesion in lymphocytes, which are known to lack fMLP receptors.
# lymphocytes = test: Rapid adhesion in lymphocytes; assay type: cell-based; conditions: lymphocytes lack fMLP receptors, result in words
# Experimental: as §2
# mouse neutrophils [5] = test: Isoluminol chemiluminescence ROS assay, mouse neutrophils; assay type: cell-based; conditions: mean+/−SD
# Experimental: Isoluminol-based chemiluminescence assays were performed in HGCa in the presence of horseradish peroxidase (HRP) and isoluminol (both from Sigma-Aldrich) in a temperature-controlled Multilabel Count Victor X5 (Perkin Elmer). Assays were run in dark 96 well plates precoated with 250 μg/ml human fibrinogen in HGCa containing (final concentration): 100 μM isoluminol and 8 U/ml HRP. After addition of 1×10^5 human neutrophils or 7.5×10^5 mouse neutrophils, plates were left at 37° C. for 5-10 min and the reaction started by addition of the stimulus. Light emission was recorded every minute.
# We used the chemotactic peptide fMLP as positive control. […] Data are mean+/−SD for three independent experiments.
# Data are mean+/−SD counts per second.
substance,measurement,setting,value
Abeta 1-42: soluble oligomeric amyloid-beta 1-42 peptide used as stimulus,CD31 expression (endothelial cell marker),[1],+
same,E-sel expression,[1],+
same,ICAM-1 expression,[1],+
same,P-sel expression,[1],+
same,VCAM-1 expression,[1],+
same,Rapid adhesion to Fibrinogen,human neutrophils [2]; 1 μM,108.0 ± 26.1 bound cells in 0.2 mm^2
same,Rapid adhesion to ICAM-1,human neutrophils [2]; 1 μM,156.5 ± 40.9 bound cells in 0.2 mm^2
same,Rapid adhesion to Fibrinogen,human neutrophils [2]; 5 μM,200.9 ± 48.7 bound cells in 0.2 mm^2
same,Rapid adhesion to ICAM-1,human neutrophils [2]; 5 μM,184.0 ± 55.4 bound cells in 0.2 mm^2
same,Rapid adhesion to Fibrinogen,human neutrophils [2]; 10 μM,285.2 ± 38.9 bound cells in 0.2 mm^2
same,Rapid adhesion to ICAM-1,human neutrophils [2]; 10 μM,229.2 ± 43.4 bound cells in 0.2 mm^2
same,Rapid adhesion to Fibrinogen,human neutrophils [2]; 20 μM,449.1 ± 34.0 bound cells in 0.2 mm^2
same,Rapid adhesion to ICAM-1,human neutrophils [2]; 20 μM,281.0 ± 30.7 bound cells in 0.2 mm^2
same,Rapid adhesion to Fibrinogen,mouse neutrophils [3]; 5 μM,37.13 ± 3.25 bound cells in 0.2 mm^2
same,Rapid adhesion to ICAM-1,mouse neutrophils [3]; 5 μM,149.9 ± 28 bound cells in 0.2 mm^2
same,Rapid adhesion to Fibrinogen,mouse neutrophils [3]; 10 μM,44.75 ± 3.68 bound cells in 0.2 mm^2
same,Rapid adhesion to ICAM-1,mouse neutrophils [3]; 10 μM,201.9 ± 14.14 bound cells in 0.2 mm^2
same,Rapid adhesion to Fibrinogen,mouse neutrophils [3]; 20 μM,88.75 ± 7.72 bound cells in 0.2 mm^2
same,Rapid adhesion to ICAM-1,mouse neutrophils [3]; 20 μM,285.3 ± 12.5 bound cells in 0.2 mm^2
same,Rapid adhesion to Fibrinogen,mouse neutrophils [3]; Abeta 1 μM,8 ± 2.42 bound cells in 0.2 mm^2
same,Rapid adhesion to ICAM-1,mouse neutrophils [3]; Abeta 1 μM,27.42 ± 3.59 bound cells in 0.2 mm^2
same,Rapid adhesion to Fibrinogen,neutrophils; 15 μM,180.7 ± 30.7 bound cells in 0.2 mm^2
same,Rapid adhesion to ICAM-1,neutrophils; 15 μM,480.7 ± 61.7 bound cells in 0.2 mm^2
same,Rapid adhesion to Fibrinogen,neutrophils; 30 μM,419.2 ± 30.7 bound cells in 0.2 mm^2
same,Rapid adhesion to ICAM-1,neutrophils; 30 μM,738.5 ± 29.3 bound cells in 0.2 mm^2
same,"Neutrophil adhesion to ICAM-1, stimulus alone (Ctrl, no inhibitor)",human neutrophils [4],490.4 ± 38.9 bound cells in 0.2 mm^2 and 475.5 ± 40.0 bound cells in 0.2 mm^2
same,Adhesion to fibrinogen or to ICAM-1 in lymphocytes,lymphocytes,did not induce adhesion
same,ROS generation (chemiluminescence),mouse neutrophils [5]; 1 min,226 ± 34 counts per second
same,ROS generation (chemiluminescence),mouse neutrophils [5]; 2 min,103 ± 17 counts per second
